Reference: patent US9181234B2, “Antibacterial compounds” (priority 2010, dated 2015)
Converted amounts (≈) assume the structure as drawn.

Columns and labels:
[1] = tested on: Haemophilus influenzae (Isolate ID ATCC 49247); experiment: Antibacterial activity, MIC, H. influenzae; assay type: cell-based; conditions: Gram negative strain, broth microdilution or agar dilution; for MIC: Haemophilus influenzae, ATCC49247
How it was run: (§1)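 CLSI-guided dilution susceptibility testing (broth or agar) gave the MIC for each strain.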

[2] = physchem; conditions: for solubility at 24 h: kinetic from dmso stock
How it was run: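 DMSO doubling dilutions were diluted twenty-fold into 100 mM citrate (pH 4), PBS (pH 7.4) or carbonate-bicarbonate (pH 9). After 24 h equilibration at room temperature, absorbance was read at 620 nm. The reported value is the highest concentration without measurable precipitate.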

[3] = tested on: Enterococcus faecalis (Isolate ID ATCC 29212); experiment: Antibacterial activity, MIC, E. faecalis; assay type: cell-based; conditions: Gram positive strain, broth microdilution or agar dilution; for MIC: Enterococcus faecalis, ATCC29212
How it was run: as §1

[4] = tested on: Streptococcus pyogenes (Isolate ID ATCC 51339); experiment: Antibacterial activity, MIC, S. pyogenes; assay type: cell-based; conditions: broth microdilution or agar dilution; for MIC: Streptococcus pyogenes, ATCC51339, Gram positive strain
How it was run: as §1

[5] = tested on: Staphylococcus aureus (Isolate ID ATCC 29213); experiment: Antibacterial activity, MIC, S. aureus; assay type: cell-based; conditions: broth microdilution or agar dilution; for MIC: Staphylococcus aureus, ATCC29213, Gram positive strain
How it was run: as §1

[6] = pH 7.4, aqueous buffer, Max Solubility
[7] = pH 7.4, aqueous buffer, Solubility (pH 7.4)
[8] = pH 7.4, aqueous buffer, Solubility Range
[9] = pH 7.4, aqueous buffer, Solubility Range (maximum solubility)

| Compound | MIC [1] [µg/mL] | solubility at 24 h [2, 6] [µg/mL] | solubility at 24 h [2, 7] [µg/mL] | solubility at 24 h [2, 8] [µg/mL] | solubility at 24 h [2, 9] [µg/mL] | MIC [3] [µg/mL] | MIC [4] [µg/mL] | MIC [5] [µg/mL] | solubility at 24 h ([2]; pH 4, aqueous buffer, Max Solubility) [µg/mL] | solubility at 24 h ([2]; pH 4, aqueous buffer, Solubility Range (maximum solubility)) [µg/mL] | Antibacterial Activity (MIC) H. influenzae (ATCC 49247) [1] | Max Solubility ([2]; pH 7.4) | Solubility (pH 7.4) ([2]; pH 7.4) | Antibacterial Activity (MIC) E. faecalis (ATCC 29212) [3] | Antibacterial Activity (MIC) S. pyogenes (ATCC 51339) ([4]; Gram positive strain) | Antibacterial Activity (MIC) S. aureus (ATCC 29213) ([5]; Gram positive strain) | solubility at 24 h ([2]; pH 9, aqueous buffer, Max Solubility) [µg/mL] | solubility at 24 h ([2]; pH 9, aqueous buffer, Solubility Range (maximum solubility)) [µg/mL] |
| --- | --- | --- | --- | --- | --- | --- | --- | --- | --- | --- | --- | --- | --- | --- | --- | --- | --- | --- |
| CCNC(=O)Nc1nc2cc(-c3cnc(N4CCC(C)(C(=O)O)CC4)nc3)cc(-c3nccnc3OC)c2s1 [Compound 86] | 1 to 16 (≈ 1.82 to 29.2 µM) | ≥ 800 | ≥ 800 | > 800 | > 800 | ≤ 0.25 | ≤ 0.25 | ≤ 0.25 | – | – | – | – | – | – | – | – | – | – |
| CCNC(=O)Nc1nc2cc(-c3cnc(N4CCC(C)(C(=O)O)CC4)nc3)cc(C3CC3)c2s1 [Compound 87, 1-{5-[7-Cyclopropyl-2-(3-ethyl-ureido)-benzothiazol-5-yl]-pyrimidin-2-yl}-4-methyl-piperidine-4-carboxylic acid] | 1 to 16 (≈ 2.08 to 33.3 µM) | ≥ 800 | ≥ 800 | > 800 | > 800 | ≤ 0.25 | 0.25 to 1 (≈ 0.52 to 2.08 µM) | 0.25 to 1 (≈ 0.52 to 2.08 µM) | – | – | – | – | – | – | – | – | – | – |
| CCNC(=O)Nc1nc2cc(-c3cnc(N4CCC(C)(C(=O)O)CC4)nc3)cc(-c3ccncc3)c2s1 [Compound 89] | 1 to 16 (≈ 1.93 to 30.9 µM) | ≥ 800 | ≥ 800 | > 800 | > 800 | ≤ 0.25 | 0.25 to 1 (≈ 0.483 to 1.93 µM) | 0.25 to 1 (≈ 0.483 to 1.93 µM) | – | – | – | – | – | – | – | – | – | – |
| CCNC(=O)Nc1nc2cc(-c3cnc(N4CCC(C)(C(=O)O)CC4)nc3)cc(-c3nccc(OC)c3C#N)c2s1 [Compound 90] | 0.25 to 1 (≈ 0.437 to 1.75 µM) | 100 (≈ 175 µM) | 100 (≈ 175 µM) | 12.5 to 400 (≈ 21.8 to 699 µM) | 12.5 to 400 (≈ 21.8 to 699 µM) | ≤ 0.25 | ≤ 0.25 | ≤ 0.25 | – | – | – | – | – | – | – | – | – | – |
| CCNC(=O)Nc1nc2cc(-c3cnc(N4CCC(C)(C(=O)O)CC4)nc3)cc(C(=O)N(C)CC)c2s1 [Compound 91, 1-[5-[2-(ethylcarbamoylamino)-7-[ethyl(methyl)carbamoyl]-1,3-benzothiazol-5-yl]pyrimidin-2-yl]-4-methyl-piperidine-4-carboxylic acid] | > 16 | ≥ 800 | ≥ 800 | > 800 | > 800 | 1 to 16 (≈ 1.9 to 30.4 µM) | > 16 | > 16 | – | – | – | – | – | – | – | – | – | – |
| CCNC(=O)Nc1nc2cc(-c3cnc(N4CCC(C)(C(=O)O)CC4)nc3)cc(-c3cc(C)c(C#N)cn3)c2s1 [Compound 92] | 0.25 to 1 (≈ 0.449 to 1.8 µM) | – | 6.25 (≈ 11.2 µM) | < 12.5 | – | ≤ 0.25 | ≤ 0.25 | ≤ 0.25 | 12.5 (≈ 22.5 µM) | 12.5 to 400 (≈ 22.5 to 719 µM) | – | – | – | – | – | – | – | – |
| CCNC(=O)Nc1nc2cc(-c3cnc(N4CCC(CC)(C(=O)O)CC4)nc3)cc(-c3cnccn3)c2s1 [Compound 99] | 1 to 16 (≈ 1.88 to 30 µM) | – | ≥ 800 | > 800 | – | ≤ 0.25 | ≤ 0.25 | ≤ 0.25 | – | – | – | – | – | – | – | – | – | – |
| CCNC(=O)Nc1nc2cc(-c3cnc(N4CCC(CC)(C(=O)O)CC4)nc3)cc(-c3cc(C#N)ccn3)c2s1 [Compound 100] | 1 to 16 (≈ 1.8 to 28.7 µM) | – | 12.5 (≈ 22.5 µM) | 12.5 to 400 (≈ 22.5 to 719 µM) | – | ≤ 0.25 | ≤ 0.25 | ≤ 0.25 | – | – | – | – | – | – | – | – | – | – |
| CCNC(=O)Nc1nc2cc(-c3cnc(N4CCC(CC)(C(=O)O)CC4)nc3)cc(-c3nccc(C)n3)c2s1 [Compound 101] | 1 to 16 (≈ 1.83 to 29.3 µM) | – | ≥ 800 | > 800 | – | ≤ 0.25 | ≤ 0.25 | ≤ 0.25 | – | – | – | – | – | – | – | – | – | – |
| CCNC(=O)Nc1nc2cc(-c3cnc(N4CCC(CC)(C(=O)O)CC4)nc3)cc(-c3cc(OC)ccn3)c2s1 [Compound 102] | 1 to 16 (≈ 1.78 to 28.5 µM) | – | ≥ 800 | > 800 | – | ≤ 0.25 | ≤ 0.25 | ≤ 0.25 | – | – | – | – | – | – | – | – | – | – |
| CCNC(=O)Nc1nc2cc(-c3cnc(N4CCC(CC)(C(=O)O)CC4)nc3)cc(-c3ncccc3C#N)c2s1 [Compound 104] | 1 to 16 (≈ 1.8 to 28.7 µM) | – | 12.5 (≈ 22.5 µM) | 12.5 to 400 (≈ 22.5 to 719 µM) | – | ≤ 0.25 | ≤ 0.25 | ≤ 0.25 | – | – | – | – | – | – | – | – | – | – |
| CCNC(=O)Nc1nc2cc(-c3cnc(N4CCC(CC)(C(=O)O)CC4)nc3)cc(-c3ccc(C#N)cn3)c2s1 [Compound 105] | 1 to 16 (≈ 1.8 to 28.7 µM) | ≥ 800 | ≥ 800 | > 800 | > 800 | ≤ 0.25 | ≤ 0.25 | ≤ 0.25 | – | – | – | – | – | – | – | – | – | – |
| CCNC(=O)Nc1nc2cc(-c3cnc(N4CCC(CC)(C(=O)O)CC4)nc3)cc(-c3ncnc4[nH]ccc34)c2s1 [Compound 106] | 1 to 16 (≈ 1.75 to 28 µM) | ≥ 800 | ≥ 800 | > 800 | > 800 | ≤ 0.25 | ≤ 0.25 | 0.25 to 1 (≈ 0.437 to 1.75 µM) | – | – | – | – | – | – | – | – | – | – |
| CCNC(=O)Nc1nc2cc(-c3cnc(N4CCC(CC)(C(=O)OCC)CC4)nc3)cc(Br)c2s1 [Compound 107] | – | – | – | – | – | – | – | – | – | – | D (“D” activity >16 μg/mL) | ≧800 μg/mL | ≧800 μg/mL | A (“A” activity ≦0.25 μg/mL) | B (“B” activity >0.25 μg/mL-1.0 μg/mL) | A (“A” activity ≦0.25 μg/mL) | – | – |
| CCNC(=O)Nc1nc2cc(-c3cnc(N4CCC(CC)(C(=O)O)CC4)cn3)cc(-c3ccccn3)c2s1 [Compound 108] | 1 to 16 (≈ 1.88 to 30.1 µM) | ≥ 800 | ≥ 800 | > 800 | > 800 | ≤ 0.25 | ≤ 0.25 | ≤ 0.25 | – | – | – | – | – | – | – | – | – | – |
| CCNC(=O)Nc1nc2cc(-c3cnc(N4CCC(CC)(C(=O)O)CC4)nc3)cc(-c3nccc(OC)n3)c2s1 [Compound 109] | > 16 | ≥ 800 | ≥ 800 | > 800 | > 800 | ≤ 0.25 | ≤ 0.25 | ≤ 0.25 | – | – | – | – | – | – | – | – | – | – |
| CCNC(=O)Nc1nc2cc(-c3cnc(N4CCC(CC)(C(=O)O)CC4)nc3)cc(-c3cc(OC)ncn3)c2s1 [Compound 110] | 0.25 to 1 (≈ 0.444 to 1.78 µM) | ≥ 800 | ≥ 800 | > 800 | > 800 | ≤ 0.25 | ≤ 0.25 | ≤ 0.25 | – | – | – | – | – | – | – | – | – | – |
| CCNC(=O)Nc1nc2cc(-c3cnc(N4CCC(CC)(C(=O)O)CC4)cn3)cc(-c3nccc(C)n3)c2s1 [Compound 112] | 1 to 16 (≈ 1.83 to 29.3 µM) | – | 25 (≈ 45.7 µM) | 12.5 to 400 (≈ 22.9 to 732 µM) | – | ≤ 0.25 | ≤ 0.25 | 0.25 to 1 (≈ 0.457 to 1.83 µM) | – | – | – | – | – | – | – | – | 100 (≈ 183 µM) | 12.5 to 400 (≈ 22.9 to 732 µM) |
| CCNC(=O)Nc1nc2cc(-c3cnc(N4CCC(CC)(C(=O)O)CC4)nc3)ccc2s1 [Compound 113] | > 16 | 100 (≈ 220 µM) | 100 (≈ 220 µM) | 12.5 to 400 (≈ 27.5 to 880 µM) | 12.5 to 400 (≈ 27.5 to 880 µM) | 0.25 to 1 (≈ 0.55 to 2.2 µM) | 1 to 16 (≈ 2.2 to 35.2 µM) | 1 to 16 (≈ 2.2 to 35.2 µM) | – | – | – | – | – | – | – | – | – | – |
